The text below walks through data of US9708368B2, “Linear peptide antibiotics” (priority 2012, dated 2017).

≈ marks a conversion by molar mass, not a printed value. Like-named read-outs stand apart in the source and are kept apart here. Square brackets hold non-standard residues; d marks the D form. Peptide text beside a SMILES is read from it. * marks the point of attachment. ξ: configuration not given here. Biphenylcarbonyl(4'-Bu) = CCCCc1ccc(-c2ccc(C(=O)*)cc2)cc1; Benzoyl(4-hexyl) = CCCCCCc1ccc(C(=O)*)cc1; NMeThr(3ξ) = CN[C@H](C(=O)O)C(C)O; Myristoyl = CCCCCCCCCCCCCC(=O)*; Thr(3ξ) = CC(O)[C@H](N)C(=O)O; NMeK = CN[C@@H](CCCCN)C(=O)O; boroAla = C[C@H](N*)B(O)O; Dab = NCC[C@H](N)C(=O)O; boroGly = OB(O)CN*; ξP = O=C(O)C1CCCN1; βAla = NCCC(=O)O

Assay [1] has as its target T1, S. aureus SPase (Staphylococcus aureus, UniProt P0A070). The assay is described as follows: biochemical.
Method: (§1) Full length His-tagged S. aureus SPase protein was expressed similarly from E. coli BL21(DE3) containing the plasmid pCDF1-SaSpsB and purified similarly to the E. coli protein with the following exceptions. […] Protein purity was judged to exceed 95% by visual inspection of SDS-PAGE followed by Comassie staining. All protein concentrations were determined by BCA assay.
(§2) Reactions were initiated by the addition of substrate to a final concentration of 20 μM. Reaction progress was monitored by measuring the increase in fluorescence signal (excitation at 314 nm, emission at 416 nm) using a SpectraMax M2 fluorescence microplate reader. […] Three-folder serial dilutions of test compounds, starting at 10 μM, were prepared in enzyme mix solution and incubated at room temperature for 10 minutes. Following this incubation, fluorogenic substrate was added to a final concentration of 20 μM and the increase in fluorescence, corresponding to substrate cleavage, was monitored continuously at room temperature for 1 hour. Initial reaction rates were calculated based on the rate of increase in fluorescence during the reaction. Reaction rates were plotted as a function of compound concentration, and IC50 values are determined nonlinear regression analysis (SoftMaxPro 5.4, Molecular Devices™) of the sigmoidal dose-response curve.
A further assay has as its target E. coli SPase (Escherichia coli, UniProt P00803). Put plainly: Biochemical SPase activity assay (fluorogenic peptide substrate), E. coli enzyme.
For assay [2], the system named is Escherichia coli MC4100 IMP-4213 in which transcription of the SPase encoding gene is under control of a tetracycline inducible promoter. The conditions noted are these: Method A; E. coli MC4100 IMP-4213 with decreased SPase expression; 35° C., 22 hours.
Method: (§3) In vitro antimicrobial activity of each compound was determined by measuring minimal inhibitor concentrations (MICs) using the broth micro-dilution technique as approved by the Clinical and Laboratory Standards Institute (CLSI). […] Cells were inoculated onto Trypyticase Soy Agar or Luria Agar containing 16 ng/ml of anhydrotetracycline respectively and grown at 35° C. for 20 hours. Inocula suspensions were made by scraping cells into 1 mL of testing media (cation adjusted Mueller Hinton Broth supplemented with 0.002% v/v Tween-80) and diluting to a final OD600 nm of 0.01.
(§4) Test compounds were prepared in DMSO at a concentration of 10 mg/ml. […] Inocula suspensions were added to the two fold serial dilutions of test compounds to a final density of OD OD600 nm of 0.0005 and incubated stationary at 35° C. for 22 hours, after which the plates were examined visually.
The test system of assay [3] is Methicillin Resistant Staphylococcus aureus strain USA 300 (NRS384). As to conditions: Method A; MRSA USA 300 (NRS384); 35° C., 22 hours.
Method: as §3, §4
For assay [4], the target named is T1, S. aureus SPase. As to conditions: read-out: IC 50 (nM) S. aureus.
Method: as §1, §2

E. coli SPase, sequence (P00803 whole entry): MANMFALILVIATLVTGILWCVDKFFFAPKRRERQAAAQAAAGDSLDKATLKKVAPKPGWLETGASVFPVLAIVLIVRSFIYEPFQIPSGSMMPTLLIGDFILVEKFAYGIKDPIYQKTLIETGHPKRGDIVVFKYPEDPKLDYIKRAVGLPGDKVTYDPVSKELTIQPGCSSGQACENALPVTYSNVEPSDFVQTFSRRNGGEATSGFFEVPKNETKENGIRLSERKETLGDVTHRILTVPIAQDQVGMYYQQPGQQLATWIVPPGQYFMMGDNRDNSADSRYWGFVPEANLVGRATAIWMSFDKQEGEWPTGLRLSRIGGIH
T1 sequence (P0A070 whole entry): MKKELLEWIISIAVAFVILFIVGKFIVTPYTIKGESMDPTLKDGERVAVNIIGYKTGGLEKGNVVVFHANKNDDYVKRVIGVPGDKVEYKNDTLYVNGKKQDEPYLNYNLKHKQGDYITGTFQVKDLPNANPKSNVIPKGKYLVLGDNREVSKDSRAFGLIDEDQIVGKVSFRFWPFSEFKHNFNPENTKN
Method for E. coli SPase: as §2

With `CCCCc1ccc(-c2ccc(C(=O)N[C@H](CO)C(=O)N[C@H](C)C(=O)NCC(=O)N[C@H](C(=O)N[C@@H](C)C(=O)N[C@@H](CC(N)=O)C(=O)NCB(O)O)C(C)O)cc2)cc1` (some centres unmarked) [Compound 115] ({Biphenylcarbonyl(4'-Bu)}-[dS][dA]G[Thr(3ξ)]AN-boroGly), the IC50 came out at 0.17 µM on S. aureus SPase [1] and 1000 nM at E. coli SPase. The “MIC (μg/mL) E. coli” value in assay [2] was over 64 µg/mL. The “MIC (μg/mL) S. aureus” value in assay [3] was over 64 µg/mL.
With `CCCCc1ccc(-c2ccc(C(=O)NCCC(=O)N[C@@H](CCCCN)C(=O)N[C@H](C(=O)N[C@@H](C)C(=O)N[C@@H](CC(N)=O)C(=O)NCB(O)O)C(C)O)cc2)cc1` (some centres unmarked) [Compound 118] ({Biphenylcarbonyl(4'-Bu)-βAla}-K[Thr(3ξ)]AN-boroGly), the IC50 amounted to 0.0094 µM at S. aureus SPase [1] and 1100 nM on E. coli SPase. For the same compound, the “MIC (μg/mL) E. coli” value in assay [2] came to 11 µg/mL (≈ 13.8 µM). Further, the “MIC (μg/mL) S. aureus” value in assay [3] turned out to be 0.71 µg/mL (≈ 0.891 µM).
In the case of `CCCCc1ccc(-c2ccc(C(=O)N[C@H](CO)C(=O)N[C@H](C)C(=O)NCC(=O)N(C)[C@@H](CCCCN)C(=O)N[C@@H](C)C(=O)N[C@@H](CC(N)=O)C(=O)NCB(O)O)cc2)cc1` [Compound 120] ({Biphenylcarbonyl(4'-Bu)}-[dS][dA]G[NMeK]AN-boroGly), the results for the IC50 against S. aureus SPase [1] and against E. coli SPase were 0.1 µM and 1600 nM, respectively. In assay [2], the “MIC (μg/mL) E. coli” value is 32 µg/mL (≈ 37.5 µM). The “MIC (μg/mL) S. aureus” value in assay [3] was over 64 µg/mL.
Regarding `CCCCCCc1ccc(C(=O)N[C@H](CO)C(=O)N[C@H](C)C(=O)NCC(=O)N(C)[C@H](C(=O)N[C@@H](C)C(=O)N[C@@H](CC(C)C)C(=O)NCC=O)C(C)O)cc1` (some centres unmarked) [Compound 102] ({Benzoyl(4-hexyl)}-[dS][dA]G[NMeThr(3ξ)]ALG-aldehyde), the IC50 against S. aureus SPase [1] was 0.0097 µM; against E. coli SPase it was 18000 nM. Besides, the “MIC (μg/mL) E. coli” value in assay [2] was over 64 µg/mL. Moreover, in assay [3], the “MIC (μg/mL) S. aureus” value is over 64 µg/mL.
Consider `CCCCCCCCCCCCCC(=O)N[C@H](CO)C(=O)N[C@H](C)C(=O)NCC(=O)N(C)[C@H](C(=O)N[C@@H](C)C(=O)N[C@@H](CC(C)C)C(=O)NCB(O)O)C(C)O` (some centres unmarked) [Compound 122] (Myristoyl-[dS][dA]G[NMeThr(3ξ)]AL-boroGly), for which the figures for the IC50 on S. aureus SPase [1] and against E. coli SPase were 0.0076 µM and 1500 nM, respectively. The “MIC (μg/mL) E. coli” value in assay [2] was over 64 µg/mL. For the same compound, in assay [3], the “MIC (μg/mL) S. aureus” value amounted to 40 µg/mL (≈ 50 µM).
For `CCCCc1ccc(-c2ccc(C(=O)N[C@H](CO)C(=O)N[C@H](C)C(=O)N3CCC[C@H]3C(=O)N[C@H](C(=O)N[C@@H](C)C(=O)N[C@@H](CC(N)=O)C(=O)NCB(O)O)C(C)O)cc2)cc1` (some centres unmarked) [Compound 116] ({Biphenylcarbonyl(4'-Bu)}-[dS][dA]P[Thr(3ξ)]AN-boroGly), the IC50 at S. aureus SPase [1] came to 0.038 µM; against E. coli SPase it was 310 nM. In addition, the “MIC (μg/mL) E. coli” value in assay [2] was over 64 µg/mL. Besides, in assay [3], the “MIC (μg/mL) S. aureus” value was over 64 µg/mL.
With `CCCCc1ccc(-c2ccc(C(=O)N[C@@H](CCN)C(=O)N[C@H](C(=O)N[C@@H](C)C(=O)N[C@@H](CCCCN)C(=O)N[C@@H](C)B(O)O)[C@@H](C)O)cc2)cc1` [Compound 238] ({Biphenylcarbonyl(4'-Bu)}-[Dab]TAK-boroAla), the IC50 on E. coli SPase (read-out: IC 50 (nM) E. coli, E. coli SPase 2.5 nM, substrate 20 μM, 10 minutes pre-incubation) is 4.6 nM; on S. aureus SPase [4], 33 nM.
Consider `CCCCCCc1ccc(C(=O)N[C@H](CO)C(=O)N[C@H](C)C(=O)NCC(=O)N(C)[C@H](C(=O)N[C@@H](C)C(=O)N[C@@H](CC(N)=O)C(=O)NCC=O)C(C)O)cc1` (some centres unmarked) [Compound 101] ({Benzoyl(4-hexyl)}-[dS][dA]G[NMeThr(3ξ)]ANG-aldehyde), for which the IC50 on S. aureus SPase [1] is 0.086 µM; against E. coli SPase it was 11000 nM. Besides, the “MIC (μg/mL) E. coli” value in assay [2] was over 64 µg/mL. In assay [3], the “MIC (μg/mL) S. aureus” value is over 64 µg/mL.
As to `CCCCCCc1ccc(C(=O)N[C@H](CO)C(=O)N[C@H](C)C(=O)NCC(=O)N(C)[C@H](C(=O)N[C@@H](C)C(=O)N[C@@H](CC(N)=O)C(=O)NCB(O)O)C(C)O)cc1` (some centres unmarked) [Compound 124] ({Benzoyl(4-hexyl)}-[dS][dA]G[NMeThr(3ξ)]AN-boroGly), the IC50 at S. aureus SPase [1] was found to be 0.083 µM; against E. coli SPase, 810 nM. For the same compound, in assay [2], the “MIC (μg/mL) E. coli” value is over 64 µg/mL. In assay [3], the “MIC (μg/mL) S. aureus” value was over 64 µg/mL.
As to `CCCCc1ccc(-c2ccc(C(=O)N[C@H](CO)C(=O)N[C@H](C)C(=O)NCC(=O)N3CCCC3C(=O)N[C@@H](C)C(=O)N[C@@H](CC(N)=O)C(=O)NCB(O)O)cc2)cc1` (some centres unmarked) [Compound 117] ({Biphenylcarbonyl(4'-Bu)}-[dS][dA]G[ξP]AN-boroGly), the IC50 on S. aureus SPase [1] was found to be 0.35 µM; against E. coli SPase, 300 nM. Besides, the “MIC (μg/mL) E. coli” value in assay [2] is over 64 µg/mL. Further, the “MIC (μg/mL) S. aureus” value in assay [3] is over 64 µg/mL.
